# According to paper PMC10802969, “Host-defense piscidin peptides as antibiotic adjuvants against Clostridioides difficile” (PLOS ONE, 2024):
# “And” between values parts separate entries of the source, which are not always exact repeats. Equal entries are not always repeated. Where two headings read alike, the source gives them in different places.
# Experiments:
# C. difficile R20291 [1] = assay: Growth inhibition assay (16 h overnight growth, culture density at 630 nm); format: cell-based, Clostridioides difficile; details: for Concentration of antibiotic necessary to suppress 16-hour growth of C. difficile: >=90% inhibition of overnight growth vs untreated, R20291, anaerobic 37°C, n>=3
# Experimental: Two-fold serial dilutions of BHIS media containing the indicated concentrations of antibiotics were prepared in sterile 96 well plates (ThermoFisher Scientific). […] Inoculated plates were incubated anaerobically at 37°C for 16 h and then removed from the chamber. […] All experiments were performed with a minimum of three samples, and the means and standard deviations were reported. To analyze the effects of the antibiotics, samples containing peptides and antibiotics were compared to samples containing only peptides by two-way analysis of variance using GraphPad Prism 6.
# [2] = tested on: C. difficile R20291 vegetative cells; assay: Enumeration of colony forming units after overnight exposure; format: cell-based, Clostridioides difficile; details: sub-lethal piscidins (2 μM p1/p1-Cu2+ or 4 μM p3/p3-Cu2+) with sub-lethal antibiotic, 16 h exposure
# Experimental: 200 μL samples of BHIS broth containing the indicated concentrations of antibiotics and/or piscidins were inoculated using a 1:10 ratio, in 96 well plates, with exponentially growing C. difficile R20291 cells and incubated for 16 h at 37°C. Samples were spread as duplicates on BHIS agar plates containing 20 μg/mL erythromycin. These plates were incubated anaerobically at 37°C for 48 h before the viable colonies were counted.
# C. difficile R20291 [3] = details: previously observed / recorded values, ref 76 (vancomycin, fidaxomicin), ref 10 (metronidazole), cited from earlier work
# [4] = tested on: C. difficile R20291 spores; assay: Spore viability assay; format: cell-based, Clostridioides difficile; details: 16 h, 37°C; for Viable colonies from spores after peptide exposure (spore data): spores in PBS, plated with 0.1% taurocholic acid, individual samples, S6 File; for Viability of dormant C. difficile spores: peptide at or above the concentrations necessary to kill vegetative cells (4/8 μM p1, 8/15 μM p3)
# Experimental: To isolate spores, exponentially growing C. difficile R20291 was inoculated 1:10 into 50 mL of BHIS broth and grown anaerobically at 37°C for 16 h. This culture was removed from anaerobic chamber and ethanol was added to a final concentration of 50%. The sample was rocked aerobically for 6 h. The absence of viable vegetative cells was confirmed by spreading volumes up to 1 mL on BHIS plates and incubating anaerobically for 48 h. […] Peptides were tested at final concentrations corresponding to 1X and 2X their previously observed inhibitory concentrations. All the samples were incubated in the chamber at 37°C for 16 hrs. After incubation, 50 μL aliquots of each sample were plated in triplicate on BHIS plates containing 20 μg/mL erythromycin and 0.1% taurocholic acid agar plates to induce germination. An additional 50 μL aliquot was plated on BHIS containing 20 μg/mL erythromycin to ensure that there was no contamination with vegetative cells. The plates were incubated in the chamber at 37°C for 48 h before the viable colonies were counted.
# C. difficile cells [5] = assay: Propidium iodide uptake assay (live cell microscopy); format: cell-based, Clostridioides difficile; details: 20 μg/mL PI; 4 μM p1/p1Cu, 8 μM p3/p3Cu; apo 30 min, metalated 10 min; anaerobic 37°C; qualitative microscopy
# Experimental: Samples containing apo-peptides and metalated peptides were incubated for 30 min and 10 min, respectively. After incubation, cells were centrifuged at 704 rfc for 5 minutes and resuspended in 1.5 mL fresh BHIS broth. Negative controls were incubated with PI for 10 or 30 minutes but contained no piscidin. Positive controls were removed from the anaerobic chamber and incubated aerobically for 1 h at room temperature with propidium iodine and 50% ethanol. Within the anaerobic chamber, samples were injected into rose chambers for microscopic imaging as detailed in [53]. The rose chambers were removed from the anaerobic chamber and the outsides were sterilized with 70% ethanol and 10% bleach. […] Samples were imaged with time-lapse differential interference contrast (DIC) microscopy and propidium iodide was monitored at excitation/emission wavelengths of 535/617 nm.
# C. difficile = details: in vitro, anaerobic; cited from earlier work
# Source text: These antibiotics target different cellular components, providing us with a way to identify whether increased efficacy relies on specific mechanistic aspects of the antibiotics and peptides. We tested this by inoculating C. difficile R20291 into media co ...
# C. difficile cells [6] = assay: Transmission electron microscopy of cell envelope damage and lysis; format: cell-based, Clostridioides difficile; details: 5 min treatment, TEM
# Experimental: Overnight cultures were prepared by inoculating individual colonies into 3 mL BHIS broth and grown for 14–16 h at 37°C in the anaerobic chamber. The overnight cultures were diluted 1:20 into 4 mL BHIS broth and the cultures were grown until they reached exponential phase (OD600 0.4–0.6). […] After treatment, the samples were transferred to 2 mL Eppendorf tubes and centrifuged for 2 minutes to collect the pellets. The pellets were individually suspended in 1 mL of 1X phosphate-buffered saline solution with 4% paraformaldehyde, prepared as described in [75]. The samples were fixed in the anaerobic chamber for 45 min. After fixation, the eppendorf tubes were removed from the chamber and the exteriors were sterilized with SporGon (Thomas Scientific), 10% bleach, and 70% ethanol (VWR). Samples were incubated on 200 mesh formvar-coated copper grids (Electron Microscopy Sciences, Hatfield, PA) that were glow-discharged. Grids were washed with water, incubated with 2% uranyl acetate, washed with water, dried overnight at room temperature, and imaged using a JEM-2100F TEM (JEOL, Akishima, Japan) at a voltage of 200 kV and using a Gatan OneView camera. The percentage of lysed cells in each condition and the standard error of each condition were compared using the Wilson confidence interval.
# [7] = with 2 μM p1 and 4 μM p3 combined
# [8] = 0.5 μg/mL vancomycin, 4 μM p1-Cu2+, or both
Compound,Concentration of antibiotic necessary to suppress 16-hour growth of C. difficile (C. difficile R20291 [1]; with 2 μM p1),Concentration of antibiotic necessary to suppress 16-hour growth of C. difficile (C. difficile R20291 [1]; with 2 μM p1Cu),Concentration of antibiotic necessary to suppress 16-hour growth of C. difficile (C. difficile R20291 [1]; with 4 μM p3),Concentration of antibiotic necessary to suppress 16-hour growth of C. difficile (C. difficile R20291 [1]; with 4 μM p3Cu),Number of viable cells after co-treatment [2],"Concentration of antibiotic necessary to suppress 16-hour growth of C. difficile, no peptide (C. difficile R20291 [3])","Viable colonies from spores after peptide exposure (spore data) ([4]; 1X MIC (4 μM p1, 8 μM p3))","Viable colonies from spores after peptide exposure (spore data) ([4]; 2X MIC (8 μM p1, 15 μM p3))",Viability of dormant C. difficile spores [4],Propidium iodide uptake by live C. difficile cells (C. difficile cells [5]),Concentration that inhibits growth and kills exponentially growing C. difficile (C. difficile),Concentration of antibiotic necessary to suppress 16-hour growth of C. difficile (C. difficile R20291 [1]; [7]),also measured
"Cc1ncc([N+](=O)[O-])n1CCO [Metronidazole, metronidazole]",0.500 µg/mL,1.0000 µg/mL,0.0625 µg/mL,1.000 µg/mL,further reduced the number of viable cells,2.000 µg/mL,–,–,–,–,–,–,"Concentration of antibiotic necessary to suppress 16-hour growth of C. difficile (C. difficile R20291 [1]; with 2 μM p1, listed as metronidazole): 0.5 µg/mL; Concentration of antibiotic necessary to suppress 16-hour growth of C. difficile (C. difficile R20291 [1]; with 2 μM p1Cu, listed as metronidazole): 1 µg/mL; Concentration of antibiotic necessary to suppress 16-hour growth of C. difficile (C. difficile R20291 [1]; with 4 μM p3Cu, listed as metronidazole): 1 µg/mL; Concentration of antibiotic necessary to suppress 16-hour growth of C. difficile, no peptide (C. difficile R20291 [3]; listed as metronidazole): 2 µg/mL"
Piscidin 3 [p3],–,–,–,–,–,–,8760 and 8840 and 10100 and 7960 and 8080 and 8480,8120 and 7200 and 9000 and 8280 and 10200 and 11400,do not affect the viability,did not visibly increase PI uptake,8 µM,–,–
Piscidin 1 [p1],–,–,–,–,–,–,10100 and 12400 and 9560 and 8440 and 7400 and 9040,9320 and 11000 and 9200 and 8240 and 10000 and 9120,do not affect the viability,did not visibly increase PI uptake,4 µM,–,–
"CCc1c(Cl)c(O)c(Cl)c(O)c1C(=O)O[C@H]1[C@H](O)[C@H](OC)[C@H](OC/C2=C\C=C\C[C@H](O)/C(C)=C/[C@H](CC)[C@@H](O[C@@H]3OC(C)(C)[C@@H](OC(=O)C(C)C)[C@H](O)[C@@H]3O)/C(C)=C/C(C)=C/C[C@@H]([C@@H](C)O)OC2=O)O[C@@H]1C [Fidaxomicin, fidaxomicin]",0.0500 µg/mL,0.0125 µg/mL,0.050 µg/mL,>0.100 µg/mL,further reduced the number of viable cells,0.256 µg/mL,–,–,–,–,–,0.00625 µg/mL,"Fold improvement of effective antibiotic concentration (C. difficile R20291 [1]; with 2 μM p1-Cu2+ vs no peptide): 20 fold; Concentration of antibiotic necessary to suppress 16-hour growth of C. difficile (C. difficile R20291 [1]; with 2 μM p1, listed as fidaxomicin): 0.05 µg/mL; Fold improvement of effective antibiotic concentration (C. difficile R20291 [1]; with 2 μM p1 and 4 μM p3 combined vs no peptide): 40 fold; Fold improvement of effective antibiotic concentration (C. difficile R20291 [1]; with 2 μM p1 vs no peptide): 5 fold; Concentration of antibiotic necessary to suppress 16-hour growth of C. difficile (C. difficile R20291 [1]; with 4 μM p3Cu, listed as fidaxomicin): > 0.1 µg/mL"
"CN[C@H](CC(C)C)C(=O)N[C@H]1C(=O)N[C@@H](CC(N)=O)C(=O)N[C@H]2C(=O)N[C@H]3C(=O)N[C@H](C(=O)N[C@H](C(=O)O)c4cc(O)cc(O)c4-c4cc3ccc4O)[C@H](O)c3ccc(c(Cl)c3)Oc3cc2cc(c3O[C@@H]2O[C@H](CO)[C@@H](O)[C@H](O)[C@H]2O[C@H]2C[C@](C)(N)[C@H](O)[C@H](C)O2)Oc2ccc(cc2Cl)[C@H]1O [Vancomycin, vancomycin]",2.000 µg/mL,0.0625 µg/mL,0.500 µg/mL,0.250 µg/mL,further reduced the number of viable cells,4.000 µg/mL,–,–,–,–,–,0.125 µg/mL,"Concentration of antibiotic necessary to suppress 16-hour growth of C. difficile (C. difficile R20291 [1]; with 2 μM p1, listed as vancomycin): 2 µg/mL; Concentration of antibiotic necessary to suppress 16-hour growth of C. difficile (C. difficile R20291 [1]; with 4 μM p3, listed as vancomycin): 0.5 µg/mL; Concentration of antibiotic necessary to suppress 16-hour growth of C. difficile (C. difficile R20291 [1]; with 4 μM p3Cu, listed as vancomycin): 0.25 µg/mL; Number of cells with cytoplasm / membrane leakage (C. difficile cells [6]; 0.5 μg/mL vancomycin (22 cells observed) or 4 μM p1-Cu2+ (14 cells observed)): 8; Number of lysed cells (severe to complete cell lysis) (C. difficile cells [6]; 0.5 μg/mL vancomycin (of 22 cells), 4 μM p1-Cu2+ (of 14), both (of 19)): 0; Proportion of lysed cells (""percentage"") (C. difficile cells [6]; [8]): 0; Wilson estimate of proportion of lysed cells (C. difficile cells [6]; [8]): 0.07692; Concentration of antibiotic necessary to suppress 16-hour growth of C. difficile, no peptide (C. difficile R20291 [3]; listed as vancomycin): 4 µg/mL"
"O=C(O)c1cn(C2CC2)c2cc(N3CCNCC3)c(F)cc2c1=O [Ciprofloxacin, ciprofloxacin]",–,–,–,–,–,> 128 µg/mL,–,–,–,–,–,–,–
